Our source for the Ki values is ChEMBL document CHEMBL4765470 (J Med Chem, 2021).

Starred links: 1 amine or outer side, 2 acyl side, 3 side chain; linkers in the order of their positions; H or OH if unused. Non-standard residues stand in square brackets, D forms with d. Residues, ends and D or L forms follow the SMILES beside them. *: point of attachment. Bpa = N[C@@H](Cc1ccc(C(=O)c2ccccc2)cc1)C(=O)O; β3hPhg = O=C(C[C@@H](N[*:1])c1ccccc1)[*:2]; Bip = N[C@@H](Cc1ccc(-c2ccccc2)cc1)C(=O)O; GABA(4S-Me) = C[C@@H](CCC(=O)[*:2])N[*:1]; X1 = O=C([C@]1(Cc2ccccc2)CCCN1[*:1])[*:2]; 1Nal = N[C@@H](Cc1cccc2ccccc12)C(=O)O; Tic = O=C(O)[C@@H]1Cc2ccccc2CN1; Pip = O=C(O)[C@@H]1CCCCN1; Nle = CCCC[C@H](N)C(=O)O; Aze = O=C(O)[C@@H]1CCN1; Ac3c = NC1(C(=O)O)CC1; Aib = CC(C)(N)C(=O)O; Bn = c1ccc(C*)cc1

In the experiment the target is T1, Apelin receptor (Homo sapiens, UniProt P35414).
T1 sequence (P35414 whole entry): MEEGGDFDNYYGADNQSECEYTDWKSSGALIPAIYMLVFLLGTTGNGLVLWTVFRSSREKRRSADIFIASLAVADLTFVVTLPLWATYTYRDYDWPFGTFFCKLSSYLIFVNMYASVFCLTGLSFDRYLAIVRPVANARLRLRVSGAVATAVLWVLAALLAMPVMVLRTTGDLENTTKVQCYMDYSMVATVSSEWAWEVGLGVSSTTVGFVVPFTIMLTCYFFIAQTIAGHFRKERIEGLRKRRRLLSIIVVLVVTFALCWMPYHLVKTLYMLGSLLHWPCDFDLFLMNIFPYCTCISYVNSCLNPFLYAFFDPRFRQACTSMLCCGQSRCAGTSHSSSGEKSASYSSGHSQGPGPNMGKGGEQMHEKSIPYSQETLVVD
The experiment in a line: Displacement of [125I] [NIe75, Tyr77]Pyr-apelin-13 from YFP-tagged human APJ receptor expressed in HEK293 cell membranes incubated for 1 hr by gamma counting based Cheng-Prusoff equation analysis.
The compound `CCCC[C@H](N)C(=O)N1CCC[C@H]1C(=O)N[C@@H](CC(C)C)C(=O)N[C@@H](Cc1cnc[nH]1)C(=O)N[C@@H](CO)C(=O)N[C@@H](CCCNC(=N)N)C(=O)N[C@H](C(=O)N1CCC[C@H]1C(=O)N[C@@H](Cc1ccccc1)C(=O)N1C[C@H](OCc2ccccc2)C[C@H]1C(=O)O)C(C)C` came in with a Ki of 38 nM.

In turn, `CCCC[C@H](N)C(=O)N1CCC[C@H]1C(=O)N[C@@H](CC(C)C)C(=O)N[C@@H](Cc1cnc[nH]1)C(=O)N[C@@H](CO)C(=O)N[C@@H](CCCNC(=N)N)C(=O)N[C@@H](CCC)C(=O)N1CCC[C@H]1C(=O)N[C@@H](Cc1ccccc1)C(=O)N1CCC[C@H]1C(=O)O` displayed an inhibition constant Ki of 69 nM. Under `CCCC[C@H](N)C(=O)N1CCC[C@H]1C(=O)N[C@@H](CC(C)C)C(=O)N[C@@H](Cc1cnc[nH]1)C(=O)N[C@@H](CO)C(=O)N[C@@H](CCCNC(=N)N)C(=O)N[C@H](C(=O)N1CCC[C@H]1C(=O)N[C@@H](Cc1ccccc1)C(=O)N1C[C@H](O)C[C@H]1C(=O)O)C(C)C` stands 76 nM; under `CCCC[C@H](N)C(=O)N1CCC[C@H]1C(=O)N(C)[C@@H](CC(C)C)C(=O)N[C@@H](Cc1cnc[nH]1)C(=O)N[C@@H](CO)C(=O)N[C@@H](CCCNC(=N)N)C(=O)N[C@H](C(=O)N1CCC[C@H]1C(=O)N[C@@H](Cc1ccccc1)C(=O)N1CCC[C@H]1C(=O)O)C(C)C`, 120 nM. With `CCCC[C@H](N)C(=O)N1CCC[C@H]1C(=O)N[C@@H](Cc1ccccc1)C(=O)N[C@@H](Cc1cnc[nH]1)C(=O)N[C@@H](CO)C(=O)N[C@@H](CCCNC(=N)N)C(=O)N[C@H](C(=O)N1CCC[C@H]1C(=O)N[C@@H](Cc1ccccc1)C(=O)N1CCC[C@H]1C(=O)O)C(C)C` (H-[Nle]PFHSRVPFP-OH), the inhibitory constant (Ki) came out at 212 nM. Under `CCCC[C@H](N)C(=O)N1CCC[C@H]1C(=O)N[C@@H](CC(C)C)C(=O)N[C@@H](C)C(=O)N[C@@H](CO)C(=O)N[C@@H](CCCNC(=N)N)C(=O)N[C@H](C(=O)N1CCC[C@H]1C(=O)N[C@@H](Cc1ccccc1)C(=O)N1CCC[C@H]1C(=O)O)C(C)C` (H-[Nle]PLASRVPFP-OH) stands 1460 nM; under `CCCC[C@H](N)C(=O)N1CCC[C@H]1C(=O)N[C@@H](CC(C)C)C(=O)N[C@@H](Cc1ccccc1)C(=O)N[C@@H](CO)C(=O)N[C@@H](CCCNC(=N)N)C(=O)N[C@H](C(=O)N1CCC[C@H]1C(=O)N[C@@H](Cc1ccccc1)C(=O)N1CCC[C@H]1C(=O)O)C(C)C` (H-[Nle]PLFSRVPFP-OH), above 10000 nM; under `CCCC[C@H](N)C(=O)N1CCC[C@H]1C(=O)N[C@@H](CC(C)C)C(=O)N[C@@H](Cc1cnc[nH]1)C(=O)N[C@@H](CO)C(=O)N[C@@H](CCCNC(=N)N)C(=O)N[C@@H](C)C(=O)N1CCC[C@H]1C(=O)N[C@@H](Cc1ccccc1)C(=O)N1CCC[C@H]1C(=O)O` (H-[Nle]PLHSRAPFP-OH), 419 nM. Under `CCCC[C@H](N)C(=O)N1CCC[C@H]1C(=O)N[C@@H](CC(C)C)C(=O)N[C@@H](Cc1cnc[nH]1)C(=O)N[C@@H](CO)C(=O)N[C@@H](CCCNC(=N)N)C(=O)N[C@@H](CC(C)C)C(=O)N1CCC[C@H]1C(=O)N[C@@H](Cc1ccccc1)C(=O)N1CCC[C@H]1C(=O)O` (H-[Nle]PLHSRLPFP-OH) stands 45 nM; under `CCCC[C@H](N)C(=O)N1CCC[C@H]1C(=O)N[C@@H](CC(C)C)C(=O)N[C@@H](Cc1cnc[nH]1)C(=O)N[C@@H](CO)C(=O)N[C@@H](CCCNC(=N)N)C(=O)N[C@H](C(=O)N1CCC[C@H]1C(=O)N[C@@H](C)CCC(=O)O)C(C)C` (H-[Nle]PLHSRVP-{GABA(4S-Me)}), above 10000 nM. Under `CCCC[C@H](N)C(=O)N1CCC[C@H]1C(=O)N[C@@H](CC(C)C)C(=O)N[C@@H](Cc1cnc[nH]1)C(=O)N[C@@H](CO)C(=O)N[C@@H](CCCNC(=N)N)C(=O)N[C@H](C(=O)N1CCC[C@H]1C(=O)N[C@H](CC(=O)O)c1ccccc1)C(C)C` (H-[Nle]PLHSRVP-β3hPhg) stands 228 nM; under `CCCC[C@H](N)C(=O)N1CCC[C@H]1C(=O)N[C@@H](CC(C)C)C(=O)N[C@@H](Cc1cnc[nH]1)C(=O)N[C@@H](CO)C(=O)N[C@@H](CCCNC(=N)N)C(=O)N[C@H](C(=O)N1CCC[C@H]1C(=O)N[C@@H](C)C(=O)N1CCC[C@H]1C(=O)O)C(C)C` (H-[Nle]PLHSRVPAP-OH), above 10000 nM; under `CCCC[C@H](N)C(=O)N1CCC[C@H]1C(=O)N[C@@H](CC(C)C)C(=O)N[C@@H](Cc1cnc[nH]1)C(=O)N[C@@H](CO)C(=O)N[C@@H](CCCNC(=N)N)C(=O)N[C@H](C(=O)N1CCC[C@H]1C(=O)N[C@@H](Cc1ccccc1)C(=O)O)C(C)C` (H-[Nle]PLHSRVPF-OH), 128 nM. Compound `CCCC[C@H](N)C(=O)N1CCC[C@H]1C(=O)N[C@@H](CC(C)C)C(=O)N[C@@H](Cc1cnc[nH]1)C(=O)N[C@@H](CO)C(=O)N[C@@H](CCCNC(=N)N)C(=O)N[C@H](C(=O)N1CCC[C@H]1C(=O)N[C@@H](Cc1ccccc1)C(=O)N[C@@H](C)C(=O)O)C(C)C` (H-[Nle]PLHSRVPFA-OH) yielded a Ki of 57 nM.

Compound `CCCC[C@H](N)C(=O)N1CCC[C@H]1C(=O)N[C@@H](CC(C)C)C(=O)N[C@@H](Cc1cnc[nH]1)C(=O)N[C@@H](CO)C(=O)N[C@@H](CCCNC(=N)N)C(=O)N[C@H](C(=O)N1CCC[C@H]1C(=O)N[C@@H](Cc1ccccc1)C(=O)N1Cc2ccccc2C[C@H]1C(=O)O)C(C)C` (H-[Nle]PLHSRVPF[Tic]-OH) had a Ki of 29 nM. The same measure for `CCCC[C@H](N)C(=O)N1CCC[C@H]1C(=O)N[C@@H](CC(C)C)C(=O)N[C@@H](Cc1cnc[nH]1)C(=O)N[C@@H](CO)C(=O)N[C@@H](CCCNC(=N)N)C(=O)N[C@H](C(=O)N1CCC[C@H]1C(=O)N[C@@H](Cc1ccccc1)C(=O)N1CCC[C@@]1(Cc1ccccc1)C(=O)O)C(C)C` (H-[Nle]PLHSRVPF[X1]-OH): 916 nM. Under `CCCC[C@H](N)C(=O)N1CCC[C@H]1C(=O)N[C@@H](CC(C)C)C(=O)N[C@@H](Cc1cnc[nH]1)C(=O)N[C@@H](CO)C(=O)N[C@@H](CCCNC(=N)N)C(=O)N[C@H](C(=O)N1CCC[C@H]1C(=O)N[C@@H](Cc1ccc(OCc2ccccc2)cc1)C(=O)O)C(C)C` (H-[Nle]PLHSRVPY(Bn)-OH) stands 92 nM; under `CCCC[C@H](N)C(=O)N1CCC[C@H]1C(=O)N[C@@H](CC(C)C)C(=O)N[C@@H](Cc1cnc[nH]1)C(=O)N[C@@H](CO)C(=O)N[C@@H](CCCNC(=N)N)C(=O)N[C@H](C(=O)N1CCC[C@H]1C(=O)N[C@@H](Cc1ccc(OCc2ccccc2)cc1)C(=O)N1CCC[C@H]1C(=O)O)C(C)C` (H-[Nle]PLHSRVPY(Bn)P-OH), above 10000 nM; under `CCCC[C@H](N)C(=O)N1CCC[C@H]1C(=O)N[C@@H](CC(C)C)C(=O)N[C@@H](Cc1cnc[nH]1)C(=O)N[C@@H](CO)C(=O)N[C@@H](CCCNC(=N)N)C(=O)N[C@H](C(=O)N1CCC[C@H]1C(=O)N[C@@H](Cc1cccc2ccccc12)C(=O)O)C(C)C` (H-[Nle]PLHSRVP[1Nal]-OH), 94 nM.

On to `CCCC[C@H](N)C(=O)N1CCC[C@H]1C(=O)N[C@@H](CC(C)C)C(=O)N[C@@H](Cc1cnc[nH]1)C(=O)N[C@@H](CO)C(=O)N[C@@H](CCCNC(=N)N)C(=O)N[C@H](C(=O)N1CCC[C@H]1C(=O)N[C@@H](Cc1ccc(-c2ccccc2)cc1)C(=O)N1CCC[C@H]1C(=O)O)C(C)C` (H-[Nle]PLHSRVP[Bip]P-OH), for which the Ki is above 10000 nM. Under `CCCC[C@H](N)C(=O)N1CCC[C@H]1C(=O)N[C@@H](CC(C)C)C(=O)N[C@@H](Cc1cnc[nH]1)C(=O)N[C@@H](CO)C(=O)N[C@@H](CCCNC(=N)N)C(=O)N[C@H](C(=O)N1CCC[C@H]1C(=O)N[C@@H](Cc1ccc(C(=O)c2ccccc2)cc1)C(=O)O)C(C)C` (H-[Nle]PLHSRVP[Bpa]-OH) stands 48 nM. `CCCC[C@H](N)C(=O)N1CCC[C@H]1C(=O)N[C@@H](CC(C)C)C(=O)N[C@@H](Cc1cnc[nH]1)C(=O)N[C@@H](CO)C(=O)N[C@@H](CCCNC(=N)N)C(=O)N[C@H](C(=O)N1CCC[C@H]1C(=O)N[C@@H](Cc1ccc(C(=O)c2ccccc2)cc1)C(=O)N1CCC[C@H]1C(=O)O)C(C)C` (H-[Nle]PLHSRVP[Bpa]P-OH) returned a Ki above 10000 nM.

`CCCC[C@H](N)C(=O)N1CCC[C@H]1C(=O)N[C@@H](CC(C)C)C(=O)N[C@@H](Cc1cnc[nH]1)C(=O)N[C@@H](CO)C(=O)N[C@@H](CCCNC(=N)N)C(=O)N[C@H](C(=O)NC1(C(=O)N[C@@H](Cc2ccccc2)C(=O)O)CC1)C(C)C` (H-[Nle]PLHSRV[Ac3c]F-OH) gave a Ki above 10000 nM. Consider `CCCC[C@H](N)C(=O)N1CCC[C@H]1C(=O)N[C@@H](CC(C)C)C(=O)N[C@@H](Cc1cnc[nH]1)C(=O)N[C@@H](CO)C(=O)N[C@@H](CCCNC(=N)N)C(=O)N[C@H](C(=O)NC(C)(C)C(=O)N[C@@H](Cc1ccccc1)C(=O)O)C(C)C` (H-[Nle]PLHSRV[Aib]F-OH), for which the Ki is above 10000 nM. The same measure for `CCCC[C@H](N)C(=O)N1CCC[C@H]1C(=O)N[C@@H](CC(C)C)C(=O)N[C@@H](Cc1cnc[nH]1)C(=O)N[C@@H](CO)C(=O)N[C@@H](CCCNC(=N)N)C(=O)N[C@H](C(=O)N1CC[C@H]1C(=O)N[C@@H](Cc1ccccc1)C(=O)O)C(C)C` (H-[Nle]PLHSRV[Aze]F-OH): 159 nM; for `CCCC[C@H](N)C(=O)N1CCC[C@H]1C(=O)N[C@@H](CC(C)C)C(=O)N[C@@H](Cc1cnc[nH]1)C(=O)N[C@@H](CO)C(=O)N[C@@H](CCCNC(=N)N)C(=O)N[C@H](C(=O)N1CCCC[C@H]1C(=O)N[C@@H](Cc1ccccc1)C(=O)O)C(C)C` (H-[Nle]PLHSRV[Pip]F-OH): 186 nM. `CCCC[C@H](N)C(=O)N1CCC[C@H]1C(=O)N[C@@H](CC(C)C)C(=O)N[C@@H](Cc1cnc[nH]1)C(=O)N[C@@H](CO)C(=O)N[C@@H](CCCNC(=N)N)C(=O)NC1(C(=O)N2CCC[C@H]2C(=O)N[C@@H](Cc2ccccc2)C(=O)N2CCC[C@H]2C(=O)O)CC1` (H-[Nle]PLHSR[Ac3c]PFP-OH) returned a Ki above 10000 nM.

The Ki is a measure of affinity in units of concentration, obtained from inhibition or displacement. A high value points to a looser hold on the target.
